Laboratory results reported in article PMC8117417, “Novel Trifluoromethyl Pyrimidinone Compounds With Activity Against Mycobacterium tuberculosis” (Frontiers in Chemistry, 2021).
In brackets after ≈: the same amount, converted by molar mass.

How the values were obtained:
[1] = tested on: M. tuberculosis H37Rv; test: Minimum inhibitory concentration (IC90) against fluorescent M. tuberculosis in liquid culture; conditions: for IC90: read-out: MTB IC90, concentration required to inhibit M. tuberculosis growth by 90%, aerobic culture, 5 days, 7H9-OADC-Tw; for MIC: MTB IC90 assay, Figure 1 primary hits and reference drugs in this assay
[2] = tested on: HepG2 human liver cells; test: Cytotoxicity against HepG2 cells (CellTiter-Glo); assay type: cell-based; conditions: Homo sapiens, HepG2, 72 h, concentration required to inhibit growth of HepG2 cells by 50%; 72 h exposure
Method: Cytotoxicity was measured after 72 h of compound exposure at 37°C and 5% CO2 using CellTiter-Glo (Promega).

SMILES	melting point [°C]	IC90 [1] [µM]	IC50 [2] [µM]	MIC [1] [µM]
COc1cccnc1-c1nc(C(F)(F)F)cc(=O)[nH]1 [Compound 19, 2-(3-Methoxypyridin-2-yl)-6-(Trifluoromethyl)Pyrimidin-4(3H)-One]	178 to 179	> 20	> 100	
Cc1c(C(F)(F)F)nc(-c2ccccc2F)[nH]c1=O [Compound 36, 2-(2-Fluorophenyl)-5-Methyl-6-(Trifluoromethyl)pyrimidin-4(3H)-One]	139 to 141	> 20	> 100	
Cc1c(Cc2ccccc2)nc(-c2ccccn2)[nH]c1=O [Compound 47, 6-Benzyl-5-Methyl-2-(Pyridin-2-yl)Pyrimidin-4(3H)-One]	120 to 121	5.7 ± 0.14	9.8 ± 5.7	
COc1ccccc1-c1nc(C(F)(F)F)c(C)c(=O)[nH]1 [Compound 34, 2-(2-Methoxyphenyl)-5-Methyl-6-(Trifluoromethyl)Pyrimidin-4(3H)-One]	158 to 160		95 ± 9.5	
O=c1cc(C(F)(F)F)nc(-c2ncccc2O)[nH]1 [Compound 17, 2-(3-Hydroxypyridin-2-yl)-6-(Trifluoromethyl)Pyrimidin-4(3H)-One]		3.3 ± 1.1	16 ± 7.6	
Cc1c(C(F)(F)F)nc(-c2ncccn2)[nH]c1=O [Compound 41, 5-Methyl-6-(Trifluoromethyl)-[2,2′-Bipyrimidin]-4(3H)-One]	229 to 230	> 20	> 100	
Cc1c(C(F)(F)F)nc(-c2ncccc2F)[nH]c1=O [Compound 45, 2-(3-Fluoropyridin-2-yl)-5-Methyl-6-(Trifluoromethyl)Pyrimidin-4(3H)-One]		> 20	> 100	
COC(=O)Cc1ccc(OCc2ccnc(-c3nc(C(F)(F)F)cc(=O)[nH]3)c2)cc1 [Compound 7]		3.3 ± 0.71	7.1 ± 0.14	3.3 ± 0.71 (≈ 1.38 µg/mL)
O=c1cc(C(F)(F)F)nc(-c2ccccc2OC(F)(F)F)[nH]1 [Compound 25]		> 20	> 100	
O=c1cc(C(F)(F)F)nc(-c2ncccc2Cl)[nH]1 [Compound 21, 2-(3-Chloropyridin-2-yl)-6-(Trifluoromethyl)Pyrimidin-4(3H)-One]		> 20	> 100	
O=c1cc(C(F)(F)F)nc(-c2ccccc2F)[nH]1 [Compound 28, 2-(2-Fluorophenyl)-6-(Trifluoromethyl)Pyrimidin-4(3H)-One]	168 to 169	> 20	> 100	
O=c1cc(C(F)(F)F)nc(-c2cc(OCc3ccccc3)ccn2)[nH]1 [Compound 6]		1.3 ± 0.21	2.5 ± 0.78	1.3 ± 0.21 (≈ 0.451 µg/mL)
CCCCc1c(C(F)(F)F)nc(-c2ccccn2)[nH]c1=O [Compound 2]			5.3 ± 1.2	6.8 ± 2.0 (≈ 2.02 µg/mL)
Cc1c(C(F)(F)F)nc(-c2ccccc2C(F)(F)F)[nH]c1=O [Compound 42, 5-Methyl-6-(Trifluoromethyl)-2-(2-(Trifluoromethyl)Phenyl)pyrimidin-4(3H)-One]	168 to 170	> 20	> 100	
NNC(=O)c1ccncc1 [isoniazid, reference compound]				0.6 ± 0.2 (≈ 0.0823 µg/mL)
N#Cc1ccc(OCc2ccnc(-c3nc(C(F)(F)F)cc(=O)[nH]3)c2)cc1 [Compound 15]		5.3 ± 1.3	7.4 ± 1.6	5.3 ± 1.3 (≈ 1.97 µg/mL)
O=c1cc(C(F)(F)F)nc(-c2ncccc2F)[nH]1 [Compound 26, 2-(3-Fluoropyridin-2-yl)-6-(Trifluoromethyl)Pyrimidin-4(3H)-One]		> 20	> 100	
Cc1c(C(F)(F)F)nc(-c2ccncc2)[nH]c1=O [Compound 23, 5-Methyl-2-(Pyridin-4-yl)-6-(Trifluoromethyl)Pyrimidin-4(3H)-One]	228 to 230	> 20	> 100	
O=c1cc(C(F)(F)F)nc(-c2cc(CCc3ccc(O)cc3)ccn2)[nH]1 [Compound 4]				4.2 ± 2.1 (≈ 1.52 µg/mL)
Cc1c(C(F)(F)F)nc(-c2cc(COc3ccc(O)cc3)ccn2)[nH]c1=O [Compound 3]		7.6 ± 0.85	7.4 ± 0.28	7.6 ± 0.85 (≈ 2.87 µg/mL)
O=C1c2ccccc2-c2nn3c(=O)cc(C(F)(F)F)nc3nc21 [Compound 1]				3.1 ± 0.49 (≈ 0.986 µg/mL)
N#Cc1ccc(COc2ccnc(-c3nc(C(F)(F)F)cc(=O)[nH]3)c2)cc1 [Compound 9]		3.7 ± 0.85	6.1 ± 2.1	3.7 ± 0.85 (≈ 1.38 µg/mL)
